Assay results reported in PMC10141580, “Cyclic Dichalcogenides Extend the Reach of Bioreductive Prodrugs to Harness Thiol/Disulfide Oxidoreductases: Applications to seco-Duocarmycins Targeting the Thioredoxin System” (ACS Central Science, 2023).
Where “and” joins values, the source holds several entries; their conditions need not be identical. Equal entries are not always repeated. Where two headings read alike, the source gives them in different places.

System: panel of 140 standard cancer cell lines
Assay: ProliFiler-140 cancer cell line screen (CellTiterGlo, 72 h)
Format: cell-based
Experimental: Incubations were performed for 72 h before automated viability readout with CellTiterGlo (Figure 8).
End of Figure S11 (part 5 of 5): ProliFiler-140 cancer cell line screening for cytotoxicity of the prodrugs.
8-data-point dose response curves from CellTiter-Glo® viability readout.
ProliFiler-140 cell line panel part V

SMILES: COc1cc2cc(C(=O)N3C[C@@H](CCl)c4c3cc(OC(=O)N(CCC(=O)N3CCN(C)CC3)[C@H]3CCSSC3)c3ccccc43)[nH]c2c(OC)c1OC [P-SS60-CBI-TMI]
- Reductive Activation Index (786-O (Kidney)): 5.22
- IC50 (786-O (Kidney), read-out: IC50 [M] (ProliFiler-140)): 2.26e-08 M and 2.3e-08 M
- Reductive Activation Index (A172 (Brain)): 4.87
- IC50 (A172 (Brain), read-out: IC50 [M] (ProliFiler-140)): 1.18e-07 M and 1.2e-07 M
- Reductive Activation Index (A375 (Skin)): 5.08
- IC50 (A375 (Skin), read-out: IC50 [M] (ProliFiler-140)): 3.23e-08 M and 3.2e-08 M
- Reductive Activation Index (A427 (Lung)): 5.0 and 5.03
- IC50 (A427 (Lung), read-out: IC50 [M] (ProliFiler-140)): 1.6e-07 M and 1.64e-07 M
- IC50 (A431 (Skin), read-out: IC50 [M] (ProliFiler-140)): 4.05e-08 M and 4e-08 M
- Reductive Activation Index (A498 (Kidney)): 5.96
- IC50 (A498 (Kidney), read-out: IC50 [M] (ProliFiler-140)): 5.04e-08 M and 5e-08 M
- IC50 (A498, read-out: IC50): 5e-08 M
- Reductive Activation Index (A549 (Lung)): 6.4
- IC50 (A549 (Lung), read-out: IC50 [M] (ProliFiler-140)): 1.2e-07 M
- IC50 (A549, read-out: IC50): 1.2e-07 M
- IC50 (A2058 (Skin), read-out: IC50 [M] (ProliFiler-140)): 1.5e-08 M
- IC50 (A2780 (Ovary), read-out: IC50 [M] (ProliFiler-140)): 1.2e-08 M
- Reductive Activation Index (AsPC-1 (Pancreas)): 8.2
- IC50 (AsPC-1 (Pancreas), read-out: IC50 [M] (ProliFiler-140)): 2.6e-07 M and 2.63e-07 M
- Reductive Activation Index (BEN (Lung)): 13
- IC50 (BEN (Lung), read-out: IC50 [M] (ProliFiler-140)): 1.1e-07 M and 1.12e-07 M
- Reductive Activation Index (BT-20 (Breast)): 4.6
- IC50 (BT-20 (Breast), read-out: IC50 [M] (ProliFiler-140)): 2.4e-07 M and 2.42e-07 M
- fold-change of IC50 relative to P-CC60 (BxPC-3): 6
- IC50 (BxPC-3 (Pancreas), read-out: IC50 [M] (ProliFiler-140)): 1.08e-07 M and 1.1e-07 M
- IC50 (COLO 205, read-out: IC50): 1.6e-07 M
- IC50 (COR-L279 (Lung), read-out: IC50 [M] (ProliFiler-140)): 1.4e-08 M and 1.43e-08 M
- IC50 (COV434 (Ovary), read-out: IC50 [M] (ProliFiler-140)): 2.2e-08 M and 2.24e-08 M
- Reductive Activation Index (Caki-1 (Kidney)): 5.23
- IC50 (Caki-1 (Kidney), read-out: IC50 [M] (ProliFiler-140)): 6.29e-08 M and 6.3e-08 M
- Reductive Activation Index (Caki-2 (Kidney)): 7.2
- IC50 (Caki-2 (Kidney), read-out: IC50 [M] (ProliFiler-140)): 2.1e-07 M
- Reductive Activation Index (Calu-6 (Lung)): 6.64
- IC50 (Calu-6 (Lung), read-out: IC50 [M] (ProliFiler-140)): 5.16e-08 M and 5.2e-08 M
- Reductive Activation Index (Colo 205 (Colon)): 4.9
- IC50 (Colo 205 (Colon), read-out: IC50 [M] (ProliFiler-140)): 1.6e-07 M and 1.57e-07 M
- Reductive Activation Index (DLD-1 (Colon)): 4.69 and 4.7
- IC50 (DLD-1 (Colon), read-out: IC50 [M] (ProliFiler-140)): 1.69e-07 M and 1.7e-07 M
- IC50 (DU-145 (Prostate), read-out: IC50 [M] (ProliFiler-140)): 3.6e-08 M and 3.58e-08 M
- IC50 (DV90 (Lung), read-out: IC50 [M] (ProliFiler-140)): 1.3e-08 M and 1.32e-08 M
- IC50 (Detroit562 (Head/Neck), read-out: IC50 [M] (ProliFiler-140)): 4.27e-08 M and 4.3e-08 M
- Reductive Activation Index (EFM-19 (Breast)): 4.2 and 4.18
- IC50 (EFM-19 (Breast), read-out: IC50 [M] (ProliFiler-140)): 2.3e-07 M
- Reductive Activation Index (EFM-192A (Breast)): 5.9
- IC50 (EFM-192A (Breast), read-out: IC50 [M] (ProliFiler-140)): 3e-07 M and 3.01e-07 M
- Reductive Activation Index (EFO-27 (Ovary)): 5.7
- IC50 (EFO-27 (Ovary), read-out: IC50 [M] (ProliFiler-140)): 1.6e-07 M and 1.58e-07 M
- IC50 (EPLC-272H (Lung), read-out: IC50 [M] (ProliFiler-140)): 7.9e-08 M
- Reductive Activation Index (H4 (Brain)): 5.36
- IC50 (H4 (Brain), read-out: IC50 [M] (ProliFiler-140)): 1.51e-08 M and 1.5e-08 M
- Reductive Activation Index (H460 (Lung)): 7.2
- IC50 (H460 (Lung), read-out: IC50 [M] (ProliFiler-140)): 7.1e-09 M and 7.11e-09 M
- IC50 (H1299 (Lung), read-out: IC50 [M] (ProliFiler-140)): 7.85e-08 M and 7.9e-08 M
- IC50 (H2228 (Lung), read-out: IC50 [M] (ProliFiler-140)): 5.68e-08 M and 5.7e-08 M
- IC50 (HCC38 (Breast), read-out: IC50 [M] (ProliFiler-140)): 1.9e-08 M
- Reductive Activation Index (HCC202 (Breast)): 7.1
- IC50 (HCC202 (Breast), read-out: IC50 [M] (ProliFiler-140)): 1.3e-07 M and 1.26e-07 M
- Reductive Activation Index (HCC827 (Lung)): 7.3
- IC50 (HCC827 (Lung), read-out: IC50 [M] (ProliFiler-140)): 1.9e-07 M
- Reductive Activation Index (HCC 1569 (Breast)): 8.2
- IC50 (HCC 1569 (Breast), read-out: IC50 [M] (ProliFiler-140)): 1.2e-07 M and 1.21e-07 M
- IC50 (HCT116 (Colon), read-out: IC50 [M] (ProliFiler-140)): 6.94e-08 M and 6.9e-08 M
- Reductive Activation Index (HCT-15 (Colon)): 5.23
- IC50 (HCT-15 (Colon), read-out: IC50 [M] (ProliFiler-140)): 1.04e-07 M and 1e-07 M
- IC50 (HCT-15, read-out: IC50): 1e-07 M
- Reductive Activation Index (HEC-1-A (Endometrium)): 6.5
- IC50 (HEC-1-A (Endometrium), read-out: IC50 [M] (ProliFiler-140)): 2.8e-07 M and 2.85e-07 M
- Reductive Activation Index (HEC-1-B (Endometrium)): 4.0
- IC50 (HEC-1-B (Endometrium), read-out: IC50 [M] (ProliFiler-140)): 8.3e-07 M and 8.33e-07 M
- IC50 (HL-60 (Blood), read-out: IC50 [M] (ProliFiler-140)): 1.8e-08 M and 1.83e-08 M
- Reductive Activation Index (HT-29 (Colon)): 5.3
- IC50 (HT-29 (Colon), read-out: IC50 [M] (ProliFiler-140)): 1.9e-07 M and 1.88e-07 M
- IC50 (HT-29, read-out: IC50): 1.9e-07 M
- IC50 (HT-1080 (Fibrosarcoma), read-out: IC50 [M] (ProliFiler-140)): 5.01e-08 M and 5e-08 M
- Reductive Activation Index (HeLa (Ovary)): 13.55
- Reductive Activation Index (Hep3B2.1-7 (Liver)): 5.6
- IC50 (Hep3B2.1-7 (Liver), read-out: IC50 [M] (ProliFiler-140)): 2.4e-07 M and 2.37e-07 M
- Reductive Activation Index (Hs 746T (Stomach)): 7.7
- IC50 (Hs 746T (Stomach), read-out: IC50 [M] (ProliFiler-140)): 1.3e-07 M and 1.29e-07 M
- Reductive Activation Index (HuH7 (Liver)): 5.70
- IC50 (HuH7 (Liver), read-out: IC50 [M] (ProliFiler-140)): 1.14e-07 M and 1.1e-07 M
- Reductive Activation Index (Hutu 80 (Duodenum)): 5.42 and 5.4
- IC50 (Hutu 80 (Duodenum), read-out: IC50 [M] (ProliFiler-140)): 9.92e-09 M and 9.9e-09 M
- IC50 (Ishikawa (Endometrium), read-out: IC50 [M] (ProliFiler-140)): 7.1e-09 M and 7.07e-09 M
- IC50 (J82 (Bladder), read-out: IC50 [M] (ProliFiler-140)): 9.88e-08 M and 9.9e-08 M
- Reductive Activation Index (JIMT-1 (Breast)): 8.4
- IC50 (JIMT-1 (Breast), read-out: IC50 [M] (ProliFiler-140)): 1.9e-07 M
- IC50 (JVM-3 (Blood), read-out: IC50 [M] (ProliFiler-140)): 8.72e-09 M and 8.7e-09 M
- IC50 (Jurkat (Blood), read-out: IC50 [M] (ProliFiler-140)): 1.64e-08 M and 1.6e-08 M
- Reductive Activation Index (K562 (Blood)): 5.3
- IC50 (K562 (Blood), read-out: IC50 [M] (ProliFiler-140)): 2.1e-07 M and 2.07e-07 M
- Reductive Activation Index (KARPAS 299 (Blood)): 4.42
- IC50 (KARPAS 299 (Blood), read-out: IC50 [M] (ProliFiler-140)): 1.6e-07 M
- Reductive Activation Index (KG-1 (Blood)): 4.67
- IC50 (KG-1 (Blood), read-out: IC50 [M] (ProliFiler-140)): 1.33e-07 M and 1.3e-07 M
- Reductive Activation Index (KG-1 a (Blood)): 5.26
- IC50 (KG-1 a (Blood), read-out: IC50 [M] (ProliFiler-140)): 1.05e-07 M and 1e-07 M
- IC50 (KMS-12-BM (Blood), read-out: IC50 [M] (ProliFiler-140)): 6.64e-08 M and 6.6e-08 M
- Reductive Activation Index (Kato III (Stomach)): 4.3
- IC50 (Kato III (Stomach), read-out: IC50 [M] (ProliFiler-140)): 3.7e-07 M and 3.72e-07 M
- Reductive Activation Index (LN229 (Brain)): 5.21
- IC50 (LN229 (Brain), read-out: IC50 [M] (ProliFiler-140)): 1.39e-07 M and 1.4e-07 M
- IC50 (LOU-NH91 (Lung), read-out: IC50 [M] (ProliFiler-140)): 7.5e-08 M and 7.46e-08 M
- IC50 (LOVO (Colon), read-out: IC50 [M] (ProliFiler-140)): 3.37e-08 M and 3.4e-08 M
- IC50 (LP-1 (Blood), read-out: IC50 [M] (ProliFiler-140)): 1.7e-07 M and 1.69e-07 M
- Reductive Activation Index (LnCap (Prostate)): 8.0
- IC50 (LnCap (Prostate), read-out: IC50 [M] (ProliFiler-140)): 1.1e-07 M and 1.12e-07 M
- Reductive Activation Index (M07e (Blood)): 8.55
- IC50 (M07e (Blood), read-out: IC50 [M] (ProliFiler-140)): 1.62e-08 M and 1.6e-08 M
- Reductive Activation Index (MCAS (Ovary)): 6.5 and 6.53
- IC50 (MCAS (Ovary), read-out: IC50 [M] (ProliFiler-140)): 1.3e-07 M and 1.25e-07 M
- IC50 (MCF-7 (Breast), read-out: IC50 [M] (ProliFiler-140)): 4.5e-08 M and 4.48e-08 M
- IC50 (MCF-7, read-out: IC50): 4.5e-08 M
- Reductive Activation Index (MDA MB 231 (Breast)): 4.24
- IC50 (MDA MB 231 (Breast), read-out: IC50 [M] (ProliFiler-140)): 1.74e-07 M and 1.7e-07 M
- Reductive Activation Index (MDA MB 435 (Skin)): 6.1
- IC50 (MDA MB 435 (Skin), read-out: IC50 [M] (ProliFiler-140)): 1.8e-07 M and 1.76e-07 M
- IC50 (MDA-MB-468 (Breast), read-out: IC50 [M] (ProliFiler-140)): 3.1e-08 M
- IC50 (MDA-MB-468, read-out: IC50): 3.1e-08 M
- IC50 (MEC-1 (Blood), read-out: IC50 [M] (ProliFiler-140)): 1.5e-08 M and 1.51e-08 M
